Data published in ChEMBL document CHEMBL6083286, “Discovery of ERD-12310A as an Exceptionally Potent and Orally Efficacious PROTAC Degrader of Estrogen Receptor α (ERα)” (J Med Chem, 2024).
Activity calls are given as the source filed them. No cut-off for these calls is given here.

Assays:
[1] = Metabolic stability mouse liver microsome assessed as half life; format: ADME; conditions: microsomes
[2] = Metabolic stability rat liver microsome assessed as half life; format: ADME; conditions: microsomes
[3] = molecular target: T1, Protein cereblon/Estrogen receptor (Homo sapiens, UniProt P03372+Q96SW2); assay: PROTAC activity at CRBN/ERalpha in human MCF7 cells assessed as reduction in ERalpha protein level measured after 12 hrs by Western blot analysis; format: cell-based
Target sequence in this assay (P03372 whole entry): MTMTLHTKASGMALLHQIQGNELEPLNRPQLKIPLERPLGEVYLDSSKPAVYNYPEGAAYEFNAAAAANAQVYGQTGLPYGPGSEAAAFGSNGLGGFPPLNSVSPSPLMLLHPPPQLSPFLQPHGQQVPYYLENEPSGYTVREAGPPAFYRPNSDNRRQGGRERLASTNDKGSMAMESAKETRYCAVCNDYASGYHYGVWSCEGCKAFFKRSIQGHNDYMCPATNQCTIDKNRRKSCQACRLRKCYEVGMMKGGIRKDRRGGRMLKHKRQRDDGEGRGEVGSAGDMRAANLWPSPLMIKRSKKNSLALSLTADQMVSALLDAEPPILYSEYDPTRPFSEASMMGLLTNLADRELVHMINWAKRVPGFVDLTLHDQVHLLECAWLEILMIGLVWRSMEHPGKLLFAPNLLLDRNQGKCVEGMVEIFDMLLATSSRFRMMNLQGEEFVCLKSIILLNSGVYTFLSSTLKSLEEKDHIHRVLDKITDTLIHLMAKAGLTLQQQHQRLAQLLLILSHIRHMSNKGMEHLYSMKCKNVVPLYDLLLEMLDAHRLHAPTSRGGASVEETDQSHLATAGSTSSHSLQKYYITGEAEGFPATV
Target sequence in this assay (Q96SW2 whole entry): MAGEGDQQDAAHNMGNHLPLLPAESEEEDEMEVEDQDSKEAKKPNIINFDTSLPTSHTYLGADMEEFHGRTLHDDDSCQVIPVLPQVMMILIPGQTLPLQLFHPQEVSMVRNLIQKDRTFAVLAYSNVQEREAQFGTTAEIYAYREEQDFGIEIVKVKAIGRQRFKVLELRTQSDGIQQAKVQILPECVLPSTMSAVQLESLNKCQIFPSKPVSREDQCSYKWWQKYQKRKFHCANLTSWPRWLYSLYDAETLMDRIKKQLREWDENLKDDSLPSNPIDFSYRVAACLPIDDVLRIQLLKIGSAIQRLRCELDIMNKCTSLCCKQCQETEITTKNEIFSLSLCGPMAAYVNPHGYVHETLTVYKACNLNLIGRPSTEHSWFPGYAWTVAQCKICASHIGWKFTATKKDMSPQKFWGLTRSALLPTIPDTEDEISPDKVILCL

[4] = molecular target: T1, Protein cereblon/Estrogen receptor; assay: PROTAC activity at CRBN/ERalpha in human MCF7 cells assessed as reduction in ERalpha protein level measured after 12 hrs by Western blot analysis relative to control; format: cell-based
Target sequence in this assay (P03372 whole entry, looked up): as the sequence (P03372 whole entry) above
Target sequence in this assay (Q96SW2 whole entry, looked up): as the sequence (Q96SW2 whole entry) above

[5] = Drug concentration in female Sprague-Dawley rat plasma at 3 mg/kg, po measured at 1 hr by LC-MS analysis; format: ADME, organism-based
[6] = Drug concentration in female Sprague-Dawley rat plasma at 3 mg/kg, po measured at 3 hrs by LC-MS analysis; format: ADME, organism-based
[7] = Drug concentration in female Sprague-Dawley rat plasma at 3 mg/kg, po measured at 6 hrs by LC-MS analysis; format: ADME, organism-based
[8] = Drug concentration in female Sprague-Dawley rat plasma at 3 mg/kg, po measured at 24 hrs by LC-MS analysis; format: ADME, organism-based
[9] = Metabolic stability human liver microsome assessed as half life; format: ADME; conditions: microsomes
[10] = molecular target: T1, Protein cereblon/Estrogen receptor; assay: PROTAC activity at CRBN/ERalpha in human MCF7 cells assessed as effect on GSPT1 level at 100 nM measured for 5 hrs by Western blot analysis; format: cell-based
Target sequence in this assay (P03372 whole entry, looked up): as the sequence (P03372 whole entry) above
Target sequence in this assay (Q96SW2 whole entry, looked up): as the sequence (Q96SW2 whole entry) above

Activity [10] | Structure (SMILES) | t1/2 [1] [min] | t1/2 [2] [min] | DC50 [3] [nM] | Emax [4] [%] | concentration at 1 h [5] [ng/mL] | concentration at 3 h [6] [ng/mL] | concentration at 6 h [7] [ng/mL] | concentration at 24 h [8] [ng/mL] | t1/2 [9] [min]
– | O=C1CC[C@H](N2Cc3c(ccc4c3OCC43CCN(CC(=O)N4CC5(CCN(c6ccc([C@@H]7c8ccc(O)cc8CC[C@@H]7c7ccccc7)cc6)CC5)C4)CC3)C2=O)C(=O)N1 | 35 | 49 | 0.0341 | 102 | 9 | < 5 | < 5 | < 5 | > 60
Active | O=C1CCC(N2Cc3c(CCCCCNC(=O)[C@@H]4NC5(CCCCC5)[C@@]5(C(=O)Nc6cc(Cl)ccc65)[C@H]4c4cccc(Cl)c4F)cccc3C2=O)C(=O)N1 (stereo not given in full) | – | – | – | – | – | – | – | – | –
